Laboratory results reported in patent US9937183B2, “Antimicrobial compounds and methods of making and using the same” (priority 2013, dated 2018).
In brackets after ≈: the same amount, converted by molar mass. Like-named read-outs stand apart in the source and are kept apart here.

Assays:
Type in all cases: cell-based
E. coli MG1655 parent = experiment: MIC, microtiter-based liquid assay (CLSI); details: Escherichia coli
A. baumannii 1705936 = experiment: MIC, microtiter-based liquid assay (CLSI); details: Acinetobacter baumannii, MDR strain
S. aureus 11540 MRSA = experiment: MIC, microtiter-based liquid assay (CLSI); details: Staphylococcus aureus
K. pneumoniae 1705966 = experiment: MIC, microtiter-based liquid assay (CLSI); details: Klebsiella pneumoniae
E. coli 1705878 = experiment: MIC, microtiter-based liquid assay (CLSI); details: Escherichia coli, MDR strain
B. anthracis = experiment: microbe, parasite or virus in culture; details: Bacillus anthracis; for MIC50: read-out: B. anthracis MIC50; for MIC90: read-out: B. anthracis MIC90; for MIC: read-out: B. anthracis MIC Range
F. tularensis = experiment: microbe, parasite or virus in culture; details: Francisella tularensis; for MIC50: read-out: F. tularensis MIC50; for MIC90: read-out: F. tularensis MIC90; for MIC: read-out: F. tularensis MIC Range
B. mallei = experiment: microbe, parasite or virus in culture; details: Burkholderia mallei; for MIC50: read-out: B. mallei MIC50; for MIC90: read-out: B. mallei MIC90; for MIC: read-out: B. mallei MIC Range
A. baumannii 1705943 = experiment: MIC, microtiter-based liquid assay (CLSI); details: Acinetobacter baumannii
Y. pestis = experiment: microbe, parasite or virus in culture; details: Yersinia pestis; for MIC50: read-out: Y. pestis MIC50; for MIC90: read-out: Y. pestis MIC90; for MIC: read-out: Y. pestis MIC Range
E. coli ATCC25922 = experiment: MIC, microtiter-based liquid assay (CLSI); details: Escherichia coli
P. aeruginosa 1705886 = experiment: MIC, microtiter-based liquid assay (CLSI); details: Pseudomonas aeruginosa
E. coli CAG12184 TolC = experiment: MIC, microtiter-based liquid assay (CLSI); details: Escherichia coli, CAG12184TOLC
P. aeruginosa 1705904 = experiment: MIC, microtiter-based liquid assay (CLSI); details: Pseudomonas aeruginosa, MDR strain
B. pseudomallei = experiment: microbe, parasite or virus in culture; details: Burkholderia pseudomallei; for MIC50: read-out: B. pseudomallei MIC50; for MIC90: read-out: B. pseudomallei MIC90; for MIC: read-out: B. pseudomallei MIC Range
P. aeruginosa ATCC27853 = experiment: MIC, microtiter-based liquid assay (CLSI); details: Pseudomonas aeruginosa
[1] = test system: E. faecium A6349 VanA + LNZ-R; experiment: MIC, microtiter-based liquid assay (CLSI); details: Enterococcus faecium
[2] = test system: S. pneumoniae 02J1175 Mef(A); experiment: MIC, microtiter-based liquid assay (CLSI); details: Streptococcus pneumoniae
K. pneumoniae 1705949 = experiment: MIC, microtiter-based liquid assay (CLSI); details: Klebsiella pneumoniae, MDR strain
[3] = ATCC25922, read-out: MIC E. coli ATCC25922 + 50% HS
[4] = ATCC25922, read-out: MIC E. coli ATCC25922

## C[C@H](N)CCCc1cc(-c2cc3cn(-c4ccc([C@H](C)NCCCNC(=N)N)cc4)c(=O)nc3[nH]2)c(F)c(Cl)c1F [Compound 12]
E. coli MG1655 parent
  MIC: 0.25 µg/mL (≈ 0.427 µM)
A. baumannii 1705936
  MIC: 2 µg/mL (≈ 3.42 µM)
S. aureus 11540 MRSA
  MIC: 0.125 µg/mL (≈ 0.214 µM)
K. pneumoniae 1705966
  MIC: 0.125 µg/mL (≈ 0.214 µM)
E. coli 1705878
  MIC: 0.25 µg/mL (≈ 0.427 µM)
B. anthracis
  MIC50: 0.06 µg/mL (≈ 0.103 µM)
  MIC90: 0.12 µg/mL (≈ 0.205 µM)
  MIC: 0.03 to 0.25 µg/mL (≈ 0.0513 to 0.427 µM)
F. tularensis
  MIC50: ≤ 0.03 µg/mL
  MIC90: ≤ 0.03 µg/mL
  MIC: 0.03 to 1 µg/mL (≈ 0.0513 to 1.71 µM)
B. mallei
  MIC50: ≤ 0.03 µg/mL
  MIC90: 0.12 µg/mL (≈ 0.205 µM)
  MIC: 0.03 to 0.25 µg/mL (≈ 0.0513 to 0.427 µM)
A. baumannii 1705943
  MIC: 0.25 µg/mL (≈ 0.427 µM)
Y. pestis
  MIC50: 0.12 µg/mL (≈ 0.205 µM)
  MIC90: 0.25 µg/mL (≈ 0.427 µM)
  MIC: 0.03 to 0.5 µg/mL (≈ 0.0513 to 0.855 µM)
E. coli ATCC25922; [3]
  MIC: 0.5 µg/mL
E. coli ATCC25922; [4]
  MIC: 0.125 µg/mL (≈ 0.214 µM)
P. aeruginosa 1705886
  MIC: 2 µg/mL (≈ 3.42 µM)
E. coli CAG12184 TolC
  MIC: 0.125 µg/mL (≈ 0.214 µM)
P. aeruginosa 1705904
  MIC: 4 µg/mL (≈ 6.84 µM)
B. pseudomallei
  MIC50: 4 µg/mL (≈ 6.84 µM)
  MIC90: 8 µg/mL (≈ 13.7 µM)
  MIC: 0.5 to 16 µg/mL (≈ 0.855 to 27.3 µM)
P. aeruginosa ATCC27853
  MIC: 4 µg/mL (≈ 6.84 µM)
[1]
  MIC: 0.5 µg/mL
[2]
  MIC: 0.125 µg/mL (≈ 0.214 µM)
K. pneumoniae 1705949
  MIC: 0.25 µg/mL (≈ 0.427 µM)

## C[C@H](N)CCCc1cc(-c2cc3cn(-c4ccc(CNCCCNC(=N)N)cc4)c(=O)nc3[nH]2)c(F)c(Cl)c1F [Compound 13]
E. coli MG1655 parent
  MIC: 0.25 µg/mL (≈ 0.438 µM)
A. baumannii 1705936
  MIC: 4 µg/mL (≈ 7 µM)
S. aureus 11540 MRSA
  MIC: 0.25 µg/mL (≈ 0.438 µM)
K. pneumoniae 1705966
  MIC: 0.25 µg/mL (≈ 0.438 µM)
E. coli 1705878
  MIC: 0.25 µg/mL (≈ 0.438 µM)
B. anthracis
  MIC50: ≤ 0.03 µg/mL
  MIC90: 0.12 µg/mL (≈ 0.21 µM)
  MIC: 0.03 to 0.12 µg/mL (≈ 0.0525 to 0.21 µM)
F. tularensis
  MIC50: ≤ 0.03 µg/mL
  MIC90: ≤ 0.03 µg/mL
  MIC: 0.03 to 0.5 µg/mL (≈ 0.0525 to 0.876 µM)
B. mallei
  MIC50: ≤ 0.03 µg/mL
  MIC90: 0.06 µg/mL (≈ 0.105 µM)
  MIC: 0.03 to 0.25 µg/mL (≈ 0.0525 to 0.438 µM)
A. baumannii 1705943
  MIC: 0.25 µg/mL (≈ 0.438 µM)
Y. pestis
  MIC50: 0.06 µg/mL (≈ 0.105 µM)
  MIC90: 0.12 µg/mL (≈ 0.21 µM)
  MIC: 0.03 to 0.25 µg/mL (≈ 0.0525 to 0.438 µM)
E. coli ATCC25922; [3]
  MIC: 0.25 µg/mL
E. coli ATCC25922; [4]
  MIC: 0.25 µg/mL (≈ 0.438 µM)
P. aeruginosa 1705886
  MIC: 2 µg/mL (≈ 3.5 µM)
E. coli CAG12184 TolC
  MIC: 0.25 µg/mL (≈ 0.438 µM)
P. aeruginosa 1705904
  MIC: 4 µg/mL (≈ 7 µM)
B. pseudomallei
  MIC50: 4 µg/mL (≈ 7 µM)
  MIC90: 8 µg/mL (≈ 14 µM)
  MIC: 0.5 to 16 µg/mL (≈ 0.876 to 28 µM)
P. aeruginosa ATCC27853
  MIC: 2 µg/mL (≈ 3.5 µM)
[1]
  MIC: 0.5 µg/mL
[2]
  MIC: 0.25 µg/mL (≈ 0.438 µM)
K. pneumoniae 1705949
  MIC: 0.5 µg/mL (≈ 0.876 µM)

## C=CCC[C@H](NCCCNC(=N)N)c1ccc(-n2cc3cc(-c4cc(CCC[C@H](C)N)cc(Cl)c4F)[nH]c3nc2=O)cc1 [Compound 14]
E. coli MG1655 parent
  MIC: 1 µg/mL (≈ 1.65 µM)
A. baumannii 1705936
  MIC: 0.5 µg/mL (≈ 0.823 µM)
S. aureus 11540 MRSA
  MIC: 0.5 µg/mL (≈ 0.823 µM)
K. pneumoniae 1705966
  MIC: 0.5 µg/mL (≈ 0.823 µM)
E. coli 1705878
  MIC: 1 µg/mL (≈ 1.65 µM)
B. anthracis
  MIC50: 0.25 µg/mL (≈ 0.412 µM)
  MIC90: 0.25 µg/mL (≈ 0.412 µM)
  MIC: 0.03 to 0.5 µg/mL (≈ 0.0494 to 0.823 µM)
F. tularensis
  MIC50: 0.06 µg/mL (≈ 0.0988 µM)
  MIC90: 0.25 µg/mL (≈ 0.412 µM)
  MIC: 0.03 to 2 µg/mL (≈ 0.0494 to 3.29 µM)
B. mallei
  MIC50: ≤ 0.03 µg/mL
  MIC90: 0.25 µg/mL (≈ 0.412 µM)
  MIC: 0.03 to 0.5 µg/mL (≈ 0.0494 to 0.823 µM)
A. baumannii 1705943
  MIC: 0.5 µg/mL (≈ 0.823 µM)
Y. pestis
  MIC50: 0.12 µg/mL (≈ 0.198 µM)
  MIC90: 0.5 µg/mL (≈ 0.823 µM)
  MIC: 0.03 to 0.5 µg/mL (≈ 0.0494 to 0.823 µM)
E. coli ATCC25922; [3]
  MIC: 2 µg/mL
E. coli ATCC25922; [4]
  MIC: 0.5 µg/mL (≈ 0.823 µM)
P. aeruginosa 1705886
  MIC: 2 µg/mL (≈ 3.29 µM)
E. coli CAG12184 TolC
  MIC: 0.5 µg/mL (≈ 0.823 µM)
P. aeruginosa 1705904
  MIC: 4 µg/mL (≈ 6.59 µM)
B. pseudomallei
  MIC50: 2 µg/mL (≈ 3.29 µM)
  MIC90: 4 µg/mL (≈ 6.59 µM)
  MIC: 0.25 to 8 µg/mL (≈ 0.412 to 13.2 µM)
P. aeruginosa ATCC27853
  MIC: 4 µg/mL (≈ 6.59 µM)
[1]
  MIC: 1 µg/mL
[2]
  MIC: 0.5 µg/mL (≈ 0.823 µM)
K. pneumoniae 1705949
  MIC: 1 µg/mL (≈ 1.65 µM)
